These results are taken from BindingDB's records for doi:10.1016/s0960-894x(99)00005-0 (Smithkline Beecham Pharmaceuticals, 1999).

The structures appear in SMILES notation.

This assay can be described thus: Inhibitory activity against varicella zoster virus (VZV) protease.
With `Cc1csc2nc([C@H](C)NC(=O)CCC(=O)c3cccs3)oc(=O)c12` [N-[(S)-1-(5-Methyl-4-oxo-4H-thieno[2,3-d][1,3]oxazin-2-yl)-ethyl]-4-oxo-4-thiophen-2-yl-butyramide], inhibition was half-maximal at 0.82 µM (IC50). The figure for `CCOc1ccc(C(=O)/C=C/C(=O)N[C@@H](C)c2nc3scc(C)c3c(=O)o2)cc1` [(E)-4-(4-Ethoxy-phenyl)-4-oxo-but-2-enoic acid [(S)-1-(5-methyl-4-oxo-4H-thieno[2,3-d][1,3]oxazin-2-yl)-ethyl]-amide] is 1.6 µM. With `COc1cccc(C(=O)/C=C/C(=O)N[C@@H](C)c2nc3scc(C)c3c(=O)o2)c1` [(E)-4-(3-Methoxy-phenyl)-4-oxo-but-2-enoic acid [(S)-1-(5-methyl-4-oxo-4H-thieno[2,3-d][1,3]oxazin-2-yl)-ethyl]-amide], the 50% inhibitory concentration (IC50) (usually the concentration needed to halve the response being measured) was found to be 0.34 µM. The figure for `Cc1csc2nc([C@H](C)NC(=O)/C=C/C(=O)c3cccc(C#N)c3)oc(=O)c12` [(E)-4-(3-Cyano-phenyl)-4-oxo-but-2-enoic acid [(S)-1-(5-methyl-4-oxo-4H-thieno[2,3-d][1,3]oxazin-2-yl)-ethyl]-amide] is 0.41 µM; for `CC(=O)C=CC(=O)N[C@@H](C)c1nc2scc(C)c2c(=O)o1` [(E)-4-Oxo-pent-2-enoic acid [(S)-1-(5-methyl-4-oxo-4H-thieno[2,3-d][1,3]oxazin-2-yl)-ethyl]-amide] it is 1.36 µM; for `Cc1csc2nc([C@H](C)NC(=O)/C=C/C(=O)c3cccs3)oc(=O)c12` [(E)-4-Oxo-4-thiophen-2-yl-but-2-enoic acid [(S)-1-(5-methyl-4-oxo-4H-thieno[2,3-d][1,3]oxazin-2-yl)-ethyl]-amide] it is 0.65 µM. The compound `Cc1csc2nc([C@H](C)NC(=O)/C=C/C(=O)c3ccccc3[N+](=O)[O-])oc(=O)c12` [(E)-4-(2-Nitro-phenyl)-4-oxo-but-2-enoic acid [(S)-1-(5-methyl-4-oxo-4H-thieno[2,3-d][1,3]oxazin-2-yl)-ethyl]-amide] registered an IC50 of 0.84 µM.
